From patent US9062078B2, “Substituted 7-azabicyles and their use as orexin receptor modulators” (priority 2013, dated 2015)
Like-named read-outs stand apart in the source and are kept apart here.

What was measured:
rat orexin 1 receptor = rat orexin 1 receptor (Rattus norvegicus, UniProt P56718); test: Rat orexin 1 receptor radioligand binding (competitive, [3H]-SB674042, HEK293 cell preparations)
human orexin 1 receptor = human orexin 1 receptor (Homo sapiens (Human), UniProt O43613); test: Human orexin 1 receptor radioligand binding (competitive, [3H]-SB674042, CHO cell preparations)
human orexin 2 receptor = human orexin 2 receptor (Homo sapiens (Human), UniProt O43614); test: Human orexin 2 receptor radioligand binding (competitive, [3H]-EMPA, HEK293 cell preparations)
[1] = human orexin 2 receptor, [3H]-EMPA competition binding, read-out: hOX2 Ki (nm)
[2] = rat orexin 1 receptor, [3H]-SB674042 competition binding, read-out: rOX1 Ki (nm)
[3] = human orexin 1 receptor, [3H]-SB674042 competition binding, read-out: hOX1 Ki (nm)

Sequence of human orexin 1 receptor (O43613 whole entry): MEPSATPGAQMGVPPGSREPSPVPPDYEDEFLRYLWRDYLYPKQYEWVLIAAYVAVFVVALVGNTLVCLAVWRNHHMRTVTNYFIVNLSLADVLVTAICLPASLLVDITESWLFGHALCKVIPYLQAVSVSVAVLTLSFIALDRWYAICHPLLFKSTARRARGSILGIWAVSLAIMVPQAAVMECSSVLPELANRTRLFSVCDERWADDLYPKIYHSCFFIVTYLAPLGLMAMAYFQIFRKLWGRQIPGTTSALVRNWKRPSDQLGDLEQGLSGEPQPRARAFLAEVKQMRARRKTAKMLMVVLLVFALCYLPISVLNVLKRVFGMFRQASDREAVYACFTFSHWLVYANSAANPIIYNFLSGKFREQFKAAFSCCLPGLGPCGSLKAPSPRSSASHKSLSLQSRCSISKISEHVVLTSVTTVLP
Sequence of human orexin 2 receptor (O43614 whole entry): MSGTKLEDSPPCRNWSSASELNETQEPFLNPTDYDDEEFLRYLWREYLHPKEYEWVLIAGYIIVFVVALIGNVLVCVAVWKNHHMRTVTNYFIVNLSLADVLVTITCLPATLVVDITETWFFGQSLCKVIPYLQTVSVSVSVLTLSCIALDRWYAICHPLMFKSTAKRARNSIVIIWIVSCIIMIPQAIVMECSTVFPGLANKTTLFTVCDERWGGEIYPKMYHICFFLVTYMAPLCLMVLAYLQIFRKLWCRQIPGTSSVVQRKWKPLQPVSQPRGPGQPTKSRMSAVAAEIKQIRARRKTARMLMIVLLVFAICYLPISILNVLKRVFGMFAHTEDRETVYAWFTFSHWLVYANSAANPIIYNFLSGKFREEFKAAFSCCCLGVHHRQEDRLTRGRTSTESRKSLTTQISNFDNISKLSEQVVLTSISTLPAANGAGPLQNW

| Structure (SMILES) | Ki (rat orexin 1 receptor; rOX1 Ki (nm)) | Ki (human orexin 1 receptor; hOX1 Ki (nm)) | Ki (human orexin 2 receptor; [1]) | Ki (rat orexin 1 receptor; read-out: rOX1 Ki (nm)) | Ki (human orexin 1 receptor; read-out: hOX1 Ki (nm)) | further results |
| --- | --- | --- | --- | --- | --- | --- |
| O=C(c1ccccc1-n1nccn1)N1C2CCC1C(Nc1ccc(C(F)(F)F)cn1)C2 (racemic) [Example 196, (±)-(2-(2H-1,2,3-triazol-2-yl)phenyl)(2-(5-(trifluoromethyl)pyridin-2-yl)amino)-7-azabicyclo[2.2.1]heptan-7-yl)methanone] | 59 nM | 61 nM | 1500 nM | – | – | – |
| O=C(c1ccccc1-n1nccn1)N1C2CCC1C(Nc1cnc3ccccc3n1)C2 (racemic) [Example 204, (±)-(2-(2H-1,2,3-triazol-2-yl)phenyl)(2-(quinoxalin-2-ylamino)-7-azabicyclo[2.2.1]heptan-7-yl)methanone] | 33 nM | 25 nM | – | – | – | Ki (human orexin 2 receptor; hOX2 Ki (nm)): 220 nM |
| Cc1ccc(-n2nccn2)c(C(=O)N2C3CCC2C(Nc2cnc4ccccc4n2)C3)n1 (racemic) [Example 205, (±)-(6-methyl-3-(2H-1,2,3-triazol-2-yl)pyridin-2-yl)(2-(quinoxalin-2-ylamino)-7-azabicyclo[2.2.1]heptan-7-yl)methanone] | 79 nM | 50 nM | – | – | – | Ki (human orexin 2 receptor; hOX2 Ki (nm)): 168 nM |
| Cc1ccc(-c2ncccn2)c(C(=O)N2C3CCC2C(Nc2cnc4ccccc4n2)C3)n1 (racemic) [Example 208, (±)-(6-methyl-3-(pyrimidin-2-yl)pyridin-2-yl)(2-(quinoxalin-2-ylamino)-7-azabicyclo[2.2.1]heptan-7-yl)methanone] | 26 nM | 30 nM | 90 nM | – | – | – |
| O=C(c1ccccc1-n1nccn1)N1C2CCC1C(Nc1ccc(Cl)cn1)C2 (racemic) [Example 211, (±)-(2-(2H-1,2,3-triazol-2-yl)phenyl)(2-(((5-chloropyridin-2-yl)amino)-7-azabicyclo[2.2.1]heptan-7-yl)methanone] | 110 nM | 55 nM | 1800 nM | – | – | – |
| O=C(c1ccccc1-n1nccn1)N1C2CCC1C(Nc1nc3cc(Cl)ccc3o1)C2 (racemic) [Example 216, (±)-(2-(2H-1,2,3-triazol-2-yl)phenyl)(2-((5-chlorobenzo[d]oxazol-2-yl)amino)-7-azabicyclo[2.2.1]heptan-7-yl)methanone] | 99 nM | 71 nM | 475 nM | – | – | – |
| Cc1ccc(-c2ncccn2)c(C(=O)N2C3CCC2C(Nc2ccc(Br)cn2)C3)n1 (racemic) [Example 217, (±)-(2-((5-bromopyridin-2-yl)amino)-7-azabicyclo[2.2.1]heptan-7-yl)(6-methyl-3-(pyrimidin-2-yl)pyridin-2-yl)methanone] | 59 nM | 40 nM | 770 nM | – | – | – |
| Cc1ccc(-c2ncccn2)c(C(=O)N2[C@@H]3CC[C@H]2[C@H](COc2ccccn2)C3)n1 (single isomer, unassigned) [Example 3A, (6-methyl-3-(pyrimidin-2-yl)pyridin-2-yl)((1S*,2R*,4R*)-2-((pyridin-2-yloxy)methyl)-7-azabicyclo[2.2.1]heptan-7-yl)methanone] | 24 nM | 19 nM | – | – | – | Ki (human orexin 2 receptor; hOX2 Ki (nm)): 268 nM |
| CCOc1ccc(C)nc1C(=O)N1C2CCC1C(Nc1cnc3ccccc3n1)C2 (single isomer, unassigned) [Example 207, (±)-(3-ethoxy-6-methylpyridin-2-yl)(2-(quinoxalin-2-ylamino)-7-azabicyclo[2.2.1]heptan-7-yl)methanone] | – | – | 64 nM | – | – | Ki (rat orexin 1 receptor; [2]): 120 nM; Ki (human orexin 1 receptor; [3]): 95 nM |
| O=C(c1cccc(F)c1-c1ncccn1)N1[C@@H]2CC[C@H]1[C@H](Nc1cnc(C(F)(F)F)cn1)C2 [Example 238, (3-fluoro-2-(pyrimidin-2-yl)phenyl)((1S,2R,4R)-2-((5-(trifluoromethyl)pyrazin-2-yl)amino)-7-azabicyclo[2.2.1]heptan-7-yl)methanone] | – | – | – | 16 nM | 16 nM | Ki (human orexin 2 receptor; read-out: hOX2 Ki (nm)): 955 nM |
| COc1ccc(C(=O)N2[C@@H]3CC[C@H]2[C@H](Nc2cnc(C(F)(F)F)cn2)C3)c(-n2nccn2)c1 [Example 241, (4-methoxy-2-(2H-1,2,3-triazol-2-yl)phenyl)((1S,2R,4R)-2-((5-(trifluoromethyl)pyrazin-2-yl)amino)-7-azabicyclo[2.2.1]heptan-7-yl)methanone] | – | – | 5060 nM | – | – | Ki (rat orexin 1 receptor; [2]): 134 nM; Ki (human orexin 1 receptor; [3]): 159 nM |
| COc1cccc(-n2nccn2)c1C(=O)N1[C@@H]2CC[C@H]1[C@H](Nc1cnc(C(F)(F)F)cn1)C2 [Example 242, (2-methoxy-6-(2H-1,2,3-triazol-2-yl)phenyl)((1S,2R,4R)-2-((5-(trifluoromethyl)pyrazin-2-yl)amino)-7-azabicyclo[2.2.1]heptan-7-yl)methanone] | – | – | 239 nM | 31 nM | 41 nM | – |
| O=C(c1cc(F)ccc1-c1ncccn1)N1[C@@H]2CC[C@H]1[C@H](Nc1cnc(C(F)(F)F)cn1)C2 [Example 243, (5-fluoro-2-(pyrimidin-2-yl)phenyl)((1S,2R,4R)-2-((5-(trifluoromethyl)pyrazin-2-yl)amino)-7-azabicyclo[2.2.1]heptan-7-yl)methanone] | – | – | 723 nM | 34 nM | 45 nM | – |
| Cc1nc(C(=O)N2[C@@H]3CC[C@H]2[C@H](Nc2cnc(C(F)(F)F)cn2)C3)c(-c2ccc(F)cc2)s1 [Example 244, (5-(4-fluorophenyl)-2-methylthiazol-4-yl)((1S,2R,4R)-2-((5-(trifluoromethyl)pyrazin-2-yl)amino)-7-azabicyclo[2.2.1]heptan-7-yl)methanone] | – | – | 235 nM | 74 nM | 46 nM | – |
| Cc1cccc(C(=O)N2[C@@H]3CC[C@H]2[C@H](Nc2cnc(C(F)(F)F)cn2)C3)c1-n1nccn1 [Example 245, (3-methyl-2-(2H-1,2,3-triazol-2-yl)phenyl)((1S,2R,4R)-2-((5-(trifluoromethyl)pyrazin-2-yl)amino)-7-azabicyclo[2.2.1]heptan-7-yl)methanone] | – | – | 288 nM | 10 nM | 7 nM | – |
| Cc1ccc(C(=O)N2[C@@H]3CC[C@H]2[C@H](Nc2cnc(C(F)(F)F)cn2)C3)c(-n2ccnn2)n1 [Example 248, (6-methyl-2-(1H-1,2,3-triazol-1-yl)pyridin-3-yl)((1S,2R,4R)-2-((5-(trifluoromethyl)pyrazin-2-yl)amino)-7-azabicyclo[2.2.1]heptan-7-yl)methanone] | – | – | > 10000 nM | – | – | Ki (rat orexin 1 receptor; [2]): 153 nM; Ki (human orexin 1 receptor; [3]): 119 nM |
| COc1ccc(C(=O)N2[C@@H]3CC[C@H]2[C@H](Nc2cnc(C(F)(F)F)cn2)C3)c(-c2ncccn2)c1 [Example 249, (4-methoxy-2-(pyrimidin-2-yl)phenyl)((1S,2R,4R)-2-((5-(trifluoromethyl)pyrazin-2-yl)amino)-7-azabicyclo[2.2.1]heptan-7-yl)methanone] | – | – | 5600 nM | 57 nM | 54 nM | – |
| O=C(c1ccc(OC(F)F)cc1-n1nccn1)N1[C@@H]2CC[C@H]1[C@H](Nc1cnc(C(F)(F)F)cn1)C2 [Example 253, (4-(difluoromethoxy)-2-(2H-1,2,3-triazol-2-yl)phenyl)((1S,2R,4R)-2-((5-(trifluoromethyl)pyrazin-2-yl)amino)-7-azabicyclo[2.2.1]heptan-7-yl)methanone] | – | – | 9600 nM | – | – | Ki (rat orexin 1 receptor; [2]): 155 nM; Ki (human orexin 1 receptor; [3]): 152 nM |
| COc1ccc(-n2nccn2)c(C(=O)N2[C@@H]3CC[C@H]2[C@H](Nc2cnc(C(F)(F)F)cn2)C3)c1 [Example 255, (5-methoxy-2-(2H-1,2,3-triazol-2-yl)phenyl)((1S,2R,4R)-2-((5-(trifluoromethyl)pyrazin-2-yl)amino)-7-azabicyclo[2.2.1]heptan-7-yl)methanone] | – | – | 265 nM | 32 nM | 29 nM | – |
| O=C(c1c(F)cccc1-n1nccn1)N1[C@@H]2CC[C@H]1[C@H](Nc1cnc(C(F)(F)F)cn1)C2 [Example 258, (2-fluoro-6-(2H-1,2,3-triazol-2-yl)phenyl)((1S,2R,4R)-2-((5-(trifluoromethyl)pyrazin-2-yl)amino)-7-azabicyclo[2.2.1]heptan-7-yl)methanone] | – | – | 690 nM | 42 nM | 48 nM | – |
| O=C(c1cccc(F)c1-c1ncco1)N1[C@@H]2CC[C@H]1[C@H](Nc1cnc(C(F)(F)F)cn1)C2 [Example 260, (3-fluoro-2-(oxazol-2-yl)phenyl)((1S,2R,4R)-2-((5-(trifluoromethyl)pyrazin-2-yl)amino)-7-azabicyclo[2.2.1]heptan-7-yl)methanone] | – | – | 519 nM | 14 nM | 10 nM | – |
| O=C(c1cccc(F)c1-c1cccnn1)N1[C@@H]2CC[C@H]1[C@H](Nc1cnc(C(F)(F)F)cn1)C2 [Example 262, (3-fluoro-2-(pyridazin-3-yl)phenyl)((1S,2R,4R)-2-((5-(trifluoromethyl)pyrazin-2-yl)amino)-7-azabicyclo[2.2.1]heptan-7-yl)methanone] | – | – | 4200 nM | – | – | Ki (rat orexin 1 receptor; [2]): 106 nM; Ki (human orexin 1 receptor; [3]): 175 nM |
| Cc1cccc(C(=O)N2[C@@H]3CC[C@H]2[C@H](Nc2cnc(C(F)(F)F)cn2)C3)c1-c1cccnn1 [Example 263, (3-methyl-2-(pyridazin-3-yl)phenyl)((1S,2R,4R)-2-((5-(trifluoromethyl)pyrazin-2-yl)amino)-7-azabicyclo[2.2.1]heptan-7-yl)methanone] | – | – | 1100 nM | 44 nM | 41 nM | – |
| O=C(c1ccc(F)cc1-c1ncccn1)N1[C@@H]2CC[C@H]1[C@H](Nc1cnc(C(F)(F)F)cn1)C2 [Example 267, (4-fluoro-2-(pyrimidin-2-yl)phenyl)((1S,2R,4R)-2-((5-(trifluoromethyl)pyrazin-2-yl)amino)-7-azabicyclo[2.2.1]heptan-7-yl)methanone] | – | – | 1700 nM | 33 nM | 61 nM | – |
| O=C(c1cccc(F)c1-n1nccn1)N1[C@@H]2CC[C@H]1[C@H](Nc1ncc(C(F)(F)F)cn1)C2 [Example 269, (3-fluoro-2-(2H-1,2,3-triazol-2-yl)phenyl)((1S,2R,4R)-2-((5-(trifluoromethyl)pyrimidin-2-yl)amino)-7-azabicyclo[2.2.1]heptan-7-yl)methanone] | – | – | 1700 nM | 48 nM | – | Ki (human orexin 1 receptor; [3]): 111 nM |
